This is an account of results in patent publication US20140024663A1, “ATB(0,+) AMINO ACID TRANSPORTER AS A DRUG TARGET FOR TREATMENT OF ESTROGEN RECEPTOR-POSITIVE BREAST CANCER” (GEORGIA HEALTH SCIENCES UNIVERSITY RESEARCH INSTITUTE, INC., priority 2012, published 2014).

Structures are written as SMILES.

Assay [1] addresses T1, Human SLC6A14 (Homo sapiens, UniProt Q9UN76).
T1 construct: expressed in transfected cells; host or cells: Xenopus laevis oocytes, microinjected with human SLC6A14 cRNA
T1 sequence (Q9UN76 1-642): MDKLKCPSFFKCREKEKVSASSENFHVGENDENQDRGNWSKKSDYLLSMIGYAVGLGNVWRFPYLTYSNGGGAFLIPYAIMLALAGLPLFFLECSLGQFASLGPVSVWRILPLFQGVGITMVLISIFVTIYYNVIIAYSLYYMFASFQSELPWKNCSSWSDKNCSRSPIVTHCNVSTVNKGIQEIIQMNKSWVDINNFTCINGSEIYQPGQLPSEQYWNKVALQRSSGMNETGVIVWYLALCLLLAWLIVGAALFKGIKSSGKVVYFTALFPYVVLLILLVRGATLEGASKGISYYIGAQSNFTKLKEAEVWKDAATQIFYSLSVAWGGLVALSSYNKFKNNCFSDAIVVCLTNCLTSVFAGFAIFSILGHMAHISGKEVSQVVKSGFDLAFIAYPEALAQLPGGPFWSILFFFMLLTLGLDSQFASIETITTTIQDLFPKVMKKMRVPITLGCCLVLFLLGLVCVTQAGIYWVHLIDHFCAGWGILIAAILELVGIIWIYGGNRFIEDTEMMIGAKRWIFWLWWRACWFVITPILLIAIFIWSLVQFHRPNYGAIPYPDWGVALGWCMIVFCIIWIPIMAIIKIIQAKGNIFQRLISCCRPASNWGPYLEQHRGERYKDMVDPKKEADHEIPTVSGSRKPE
In words: SLC6A14 transport function in X. laevis oocytes (two-microelectrode voltage-clamp). The class given is cell-based. Particulars: for Hill coefficient of Na+-activation kinetics (number of Na+ involved in the activation process): SLC6A14-mediated transport, amino acid 1 mM, Cl- constant at 100 mM, three oocytes; for inward currents on perifusion of SLC6A14-expressing oocytes: amino acid 100 M (so in the source), in the presence of NaCl. The text has this: FIGS. 3A and 3B. Natactivation kinetics of SLC6A14-mediated transport of leucine (FIG. 3A) and arginine and glutamine (FIG. 3B). Human SLC6A14 was expressed heterologously in X. laevis oocytes by microinjection of cRNA. Four days following injection, oocytes were used for electrophysiological studies using the two-microelectrode voltage-clamp method. […] Since the expression levels varied from oocyte to oocyte resulting in varying magnitudes of amino acid-induced currents, the currents were normalized by taking the magnitude of the currents induced at 100 mM Na^+ as 1 in each oocyte and calculating the magnitude of the currents induced at other concentrations of Na^+ as a fraction of this maximal current. The experiments were done with three different oocytes and the results are given as means±SE. Insets, Hill plots.
FIG. 4. Cl^−-activation kinetics of SLC6A14-mediated transport of leucine, arginine, and glutamine. […] The experiments were done with three different oocytes and the results are given as means±SE.
FIGS. 5A to 5C. Blockade of SLC6A14-mediated transport of leucine (FIG. 5A), glutamine (FIG. 5B), and arginine (FIG. 5C) by α-MT. Oocytes injected with human SLC6A14 cRNA were perifused with 100 µM leucine, 100 μM glutamine, or 100 μM arginine under varying experimental conditions as indicated.
Analysis of SLC6A14 transport function in X. laevis oocytes. SLC6A14-mediated transport of leucine, glutamine, and arginine and its blockade by α-MT were studied using the X. laevis oocyte heterologous expression system as described previously (Hatanaka et al., 2001, J Clin Invest; 107:1035-1043; and Karunakaran et al., 2008, Biochem J; 414:343-355). Human cloned SLC6A14 cDNA was used in these studies.

Assay [2] relates to MB231 cells. In words: Cell death by propidium iodide staining and FACS cell cycle analysis. The assay is classed as cell-based, human. Particulars: MB231, α-MT 2.5 mM and 3-MA 10 mM, either alone or together, 48 h. Here is the method:
(§1) FIGS. 9A to 9D. Influence of α-MT on mTOR activity In FIG. 9A, MCF7 and MB231 cells were treated without or with α-MT (2.5 mM) for 24 h, 48 h, or 72 h, and then the cell lysates were used for western blot. Influence of α-MT with or without 3-MA on cell death. In FIG. 9B, MCF7, MB231, and MCF10A cells were treated for 48 h without or with α-MT (2.5 mM), 3-MA (10 mM), or α-MT (2.5 mM) plus 3-MA (10 mM), and then analyzed for cell death by propidium iodide (PI) staining and FACS-based cell cycle analysis. In FIG. 9C, MCF7 cells were treated for 48 h without or with α-MT (2.5 mM), 3-MA (10 mM), or α-MT (2.5 mM) plus 3-MA (10 mM), and then analyzed for apoptotic cell death by annexin V labeling. In FIG. 9D, MCF7 and MB231 cells were treated without or with 2.5 mM α-MT for 24 h, 48 h, or 72 h. Cell lysates were then used for western blot analysis of lamin A degradation product using an antibody that recognizes specifically the proteolytic cleavage product. β-Actin was used as an internal control.
(§2) Apoptosis assay. Fluorescence-activated cell sorting (FACS) was used to monitor cell death. MCF7 cells were treated with or without α-MT, 3-MA, or α-MT plus 3-MA. Control and treated cells were then fixed in 50% ethanol, treated with 0.1% sodium citrate, 1 mg/ml RNase A, and 50 μg/ml propidium iodide, and then subjected to FACS analysis (FACS Caliber, Becton Dickinson). FITC-labeled annexin V was used to differentiate apoptotic cell death from necrotic cell death.

For assay [3], the system named is MCF10A cells. Described as above. The conditions noted are these: α-MT 2.5 mM and 3-MA 10 mM, either alone or together, 48 h. The class given is cell-based, human. Here is the method:
as §1, §2

Assay [4] concerns MCF7 cells. In words: Analysis of autophagy (LC3 localization, electron microscopy, autophagosomal proteolysis, GFP-LC3). The assay is classed as cell-based, human. Particulars: 48 h. Here is the method: FIGS. 6A to 6C. Effects of SLC6A14 blockade with α-MT in breast cancer cells. In FIG. 6A, MCF10A (a non-malignant mammary epithelial cell line), MCF7 (an ER-positive breast cancer cell line), and MB231 (an ER-negative breast cancer cell line) cells were treated with or without 2.5 mM α-MT for 24, 48, or 72 h and then used for analysis of asparagine synthetase (ASNS) and CHOP mRNA levels. In FIG. 6B, MCF7, MB231 and MCF10A cells were treated with or without 2.5 mM α-MT for 48 h and then used for immunocytochemical analysis of the constitutively expressed LC-3. In FIG. 6C, MCF7 cells were treated with (“b” and “c”) or without (“a”) α-MT (2.5 mM) for 48 h and then used for electron microscopy. Arrows indicate sequestration of cytoplasm and organelles in pre-autophagosomes and autophagosome, and the asterisk indicates condensed chromatin. N, nucleus.
FIGS. 7A and 7B. Induction of autophagy in MCF7 cells by α-MT. […] The concentrations of α-MT and 3-MA, when present, were 2.5 mM and 10 mM. The treatment time was 48 h. The extent of proteolysis was determined by the radioactivity present in the protein-free supernatant. […] In FIG. 7B, MCF7 cells were transfected with an GFP-LC3 expression plasmid, and 24 h later, the cells were treated with or without α-MT (2.5 mM) in the presence or absence of 3-MA (10 mM) for 48 h. At the end of the treatment, cells were fixed, and the percent of cells with punctate localization of the ectopically expressed GFP-LC3 was quantified. “a” represents compared to control; “b” represents compared to treatment with α-MT alone; and “c” represents compared to treatment with […]; *, p<0.001.
Analysis of autophagy. Autophagy was analyzed as described previously (Periyasamy-Thandavan et al., 2010, Autophagy; 6:19-35; and Samaddar et al., 2008, Mol Cancer Ther; 7:2977-2987) by monitoring the localization pattern of constitutively expressed LC3 as well as that of ectopically expressed GFP-LC3. In the case of the constitutively expressed LC3, cells were treated without or with α-MT, and then used for immunocytochemical analysis of LC3 localization pattern. For ectopically expressed LC3, cells were transfected with a GFP-LC3 expression plasmid. Briefly, cells were plated on a coverslip to reach ˜50% confluence and transfection of these cells was done with 1 μg of the plasmid using FuGENE transfection reagent (Roche, Nutley, N.J.). […] At the end of the treatment, cells were fixed with 4% paraformaldehyde and examined by fluorescence microscopy to count the number of cells with punctate GFP-LC3. Autophagosomal proteolysis was quantified as described previously (Periyasamy-Thandavan et al., 2010, Autophagy; 6:19-35). […]

Assay [5] concerns MCF7 cells. In words: Apoptotic cell death by annexin V labeling. The assay is classed as cell-based, human. Particulars: 48 h. Here is the method:
as §1, §2

Consider `CC(C)C[C@H](N)C(=O)O` [leucine], for which, in assay [1], the “Hill coefficient of Na+-activation kinetics (number of Na+ involved in the activation process)” value (“Hill coefficient” for short) stood at 2.2 and the “inward currents on perifusion of SLC6A14-expressing oocytes” value (“inward currents on perifusion” for short) was “induced inward currents”.
As for `N=C(N)NCCC[C@H](N)C(=O)O` [arginine], in assay [1], the “Hill coefficient” value came out at 2.1 and the “inward currents on perifusion” value is on record as “induced inward currents”.
On to `Cn1cnc(N)c2ncnc1-2` [3-MA, 3-methyladenine, reference compound], for which the “effect on cell death” value was “very little, if any, effect” in assay [2] and “very little, if any, effect” in assay [3]. The “inhibition of α-MT-induced proteolysis of 14C-labeled proteins” value in assay [4] (MCF7, cotreatment 3-MA 10 mM with α-MT 2.5 mM) is “inhibited significantly”. Moreover, in assay [4] (MCF7 transfected with GFP-LC3, 3-MA 10 mM plus α-MT 2.5 mM), the “block of autophagy induced by α-MT” value is > 90%. For the same molecule, the “apoptotic cell death by annexin V labeling” value in assay [5] (MCF7, 3-MA 10 mM combined with α-MT 2.5 mM, compared with either agent alone) is reported as “much greater”; in assay [5] (MCF7, single agent (α-MT 2.5 mM or 3-MA 10 mM)), “significant apoptosis”.
On to `NC(=O)CC[C@H](N)C(=O)O` [glutamine], for which, in assay [1], the “Hill coefficient” value came to 2.4 and the “inward currents on perifusion” value is given as “induced inward currents”.
